# Entries after “also recorded” stand apart in the source; their conditions may differ. Where a name gives a salt, the structure may show the parent alone. Read-outs that look alike come from different tables or passages of the source.
# Tests used:
# [1] = tested on: α2-receptor sites; conditions: central nervous system; cited from earlier work
# [2] = tested on: peripheral α-adrenergic receptors; conditions: used as an antihypertensive; initial stimulation of peripheral α-adrenergic receptors; cited from earlier work
# [3] = tested on: heart; conditions: in vivo; cited from earlier work
# [4] = tested on: bulbar sympathetic cardioaccelerator and sympathetic vasoconstrictor centers; conditions: in vivo; cited from earlier work
# [5] = tested on: α2-adrenergic receptor sites; conditions: cited from earlier work
# [6] = tested on: choroid of the eye; conditions: rats; clonidine hydrochloride; cited from earlier work
# [7] = patient; cited from earlier work
# [8] = biological target: T1, α2-adrenergic receptor (Homo sapiens, UniProt P08913); conditions: human platelet membranes, comparison with other drugs
# T1 sequence (P08913 1-465): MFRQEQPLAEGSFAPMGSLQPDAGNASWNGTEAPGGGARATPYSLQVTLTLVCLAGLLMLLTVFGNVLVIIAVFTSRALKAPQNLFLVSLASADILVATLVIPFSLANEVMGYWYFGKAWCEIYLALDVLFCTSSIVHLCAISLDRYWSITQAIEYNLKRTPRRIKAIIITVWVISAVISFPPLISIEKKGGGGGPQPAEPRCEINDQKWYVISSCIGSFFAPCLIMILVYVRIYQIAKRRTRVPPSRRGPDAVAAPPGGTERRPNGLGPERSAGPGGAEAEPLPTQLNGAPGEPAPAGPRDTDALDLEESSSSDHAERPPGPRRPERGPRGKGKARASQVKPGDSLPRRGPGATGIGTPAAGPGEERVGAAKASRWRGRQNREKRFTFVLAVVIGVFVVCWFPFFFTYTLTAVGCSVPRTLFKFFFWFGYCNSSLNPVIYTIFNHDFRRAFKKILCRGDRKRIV
# Protocol: (§1) Human platelet plasma membranes were prepared by sonication of human platelet concentrates (Red Cross) followed by centrifugation on a discontinuous sucrose gradient (14%/34% by weight) for 3 hours at 140,000 x g. The membrane fraction was collected from the interface of the heavy and light sucrose, and will be herein designated as purified platelet plasma membrane (PPM).
# (§2) Bound radioactivity was measured by scintillation counting of the GF/C filter in OCF scintillation cocktail (Amerscham) on a Beckman LR 8100 scintillation counter.
# (§3) IC50 is the concentration of compound which reduces binding to 50% of the initial value.
# [9] = biological target: T1, α2-adrenergic receptor; assay: biochemical
# Protocol: as §1, §2, §3
smiles,measurement,setting,value
"Clc1cccc(Cl)c1N=C1NCCN1 [Clonidine, 2-(2,6-dichlorophenylamine)-2-imidazoline]",response to activation of α2-receptor sites,[1],response similar to norepinephrine in the central nervous system
same,initial vascular effect,[2],transient vasoconstriction
same,tissue localization,[3],known to localize in the heart
same,sympathetic outflow from the brain,[4],decrease in sympathetic outflow from the brain
same,binding site specificity,[5],binds preferentially to α2 -adrenergic receptor sites
Clc1cccc(Cl)c1N=C1NCCN1 [clonidine hydrochloride],buildup in the choroid of the eye,[6],significant buildup of clonidine occurs in the choroid of the eye
same,retinal degeneration,[6],possibility of retinal degeneration
same,route of excretion of drug and metabolites,[7],leave the patient primarily through urinary discharge
"Clc1cc(I)cc(Cl)c1N=C1NCCN1 [p-Iodoclonidine, 2-(2,6-dichloro-4-iodophenylimino-2)imidazolidine]","relative affinity / potency in competition for α2-adrenergic receptor sites, in words",[8],greater affinity for the receptor than clonidine
same,"relative affinity / potency in competition for α2-adrenergic receptor sites, in words",[8]; listed as p-iodoclonidine,"more potent than either p-aminoclonidine or clonidine in competition for α2 -adrenergic receptor sites; also recorded: more potent (IC50 =1.3) than clonidine, p-aminoclonidine, or yohimbine; also recorded: binds better than epinephrine"
same,IC50,[9],1.3 nM

# Reference: patent US4883649A (The University of Michigan, priority 1988, dated 1989)
